Results: patent US11912693B2, “Compounds for modulating S1P1 activity and methods of using the same” (TREVENA, INC., priority 2017, dated 2024)

Tests used:
[1] = molecular target: sphingosine-1-phosphate receptor 5 (S1P5) (Homo sapiens (Human), UniProt Q9H228); test: Inhibition of cAMP production (HTRF), S1P5 CHO-K1 cells; assay type: cell-based; conditions: for Emax: CHO-K1, read-out: hS1P5 cAMP SPAN; for hS1P5 cAMP pEC50: inhibition of cAMP production
Experimental: (§1) Stable clonal Chinese hamster ovary K1 (CHO-K1) cells co-expressing EA-β-arrestin2 and the human sphingosine-1-phosphate receptor 2 (NM_004230.3, S1P2), human sphingosine-1-phosphate receptor 3 (NM_005226, S1P3) and sphingosine-1-phosphate receptor 5 (NM_001166215.1, S1P5) with a C-terminal Prolink™ tag were purchased from DiscoverX corporation (S1P2: Cat #93-0256C2, S1P3: Cat #93-0217C2, S1P5: Cat #93-0583C2).
(§2) Cell lines were cultured in AssayComplete™ Media 6 (DiscoverX Corporation, Cat #: 920018GF2) at 37° C. and 5% CO2 in a humidified CO2 and temperature-controlled incubator. To begin assay plating, cells were washed with dulbecco's phosphate buffered saline (CellGro, Cat #: 21-031-CV) and lifted from the culturing flask by incubation (37° C., 5 min) with CellStripper (Cellgro, Cat #: 25-056-CI). […] Plated cells were incubated overnight at 37° C. and 5% CO2 in a humidified CO2 and temperature-controlled incubator.
(§3) S1P3 and S1P5 Agonist-promoted G-protein responses were determined by measuring changes in intracellular cAMP using the HTRF® cAMP HiRange kit (CisBio, Cat #: 62AM6PEJ) based on time-resolved fluorescence resonance energy transfer (TR-FRET) technology. […] Following a 30-minute room temperature incubation the components of the cAMP HiRange kit were added as per the manufacturer's instructions. After an hour incubation at room temperature, plates were analyzed by a BMG PheraStar microplate reader.
(§4) The tables below include the efficacy of the compound as compared to a positive control, referred to as “SPAN”. These values are normalized to fingolimod, a known agonist of the sphingosine-1-phosphate 3 and 5 receptor or CYM5520, a known agonist of the sphingosine-1-phosphate 2 receptor. The tables also include potency values (pEC50) for modulating discrete receptor-mediated activities (inhibition of cAMP production or inositol monophosphate accumulation).

[2] = molecular target: T1, human sphingosine-1-phosphate receptor 1 (S1P1) (Homo sapiens (Human), UniProt P21453); test: β-Arrestin2 recruitment assay (PathHunter), S1P1 CHO-K1 cells; assay type: cell-based; conditions: for Emax: CHO-K1, read-out: hS1P1 B-arrestin2 SPAN
How it was run: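 Enzyme-fragment complementation read-out: agonist-driven β-arrestin2 binding to ProLink-tagged human S1P1 in stable CHO-K1 cells restores β-galactosidase, measured 1 h at room temperature after a 60 min 37° C. compound incubation. Potency as pEC50, efficacy relative to fingolimod (SPAN).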
Target sequence in this assay (P21453 whole entry, looked up, the tested form may be a part): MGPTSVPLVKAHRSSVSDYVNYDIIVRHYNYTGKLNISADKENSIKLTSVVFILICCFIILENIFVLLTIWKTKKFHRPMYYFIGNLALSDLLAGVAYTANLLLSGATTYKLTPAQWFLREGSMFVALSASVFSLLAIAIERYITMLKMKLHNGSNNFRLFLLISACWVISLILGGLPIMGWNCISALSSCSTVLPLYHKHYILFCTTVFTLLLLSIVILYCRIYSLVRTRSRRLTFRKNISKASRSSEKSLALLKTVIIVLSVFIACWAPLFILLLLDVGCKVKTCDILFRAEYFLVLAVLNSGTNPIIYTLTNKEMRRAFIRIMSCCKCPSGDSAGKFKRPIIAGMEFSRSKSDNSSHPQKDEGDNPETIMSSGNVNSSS
Target sequence in this assay (P32121 whole entry partner, looked up, the tested form may be a part): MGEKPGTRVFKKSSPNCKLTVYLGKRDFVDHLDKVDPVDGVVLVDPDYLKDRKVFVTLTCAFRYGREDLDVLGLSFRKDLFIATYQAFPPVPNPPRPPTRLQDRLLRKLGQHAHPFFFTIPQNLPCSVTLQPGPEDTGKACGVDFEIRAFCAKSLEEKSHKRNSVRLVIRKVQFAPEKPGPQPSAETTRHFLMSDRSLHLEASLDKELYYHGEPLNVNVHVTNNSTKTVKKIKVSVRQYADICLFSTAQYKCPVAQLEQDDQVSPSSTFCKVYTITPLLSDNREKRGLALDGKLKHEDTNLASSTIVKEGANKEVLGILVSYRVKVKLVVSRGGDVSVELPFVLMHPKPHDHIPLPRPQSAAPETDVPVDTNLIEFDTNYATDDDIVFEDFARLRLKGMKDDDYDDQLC

[3] = test system: paclitaxel induced peripheral neuropathy; test: Reversal of allodynia induced by paclitaxel in mice (s.c. or p.o., von Frey frequency method); assay type: in vivo, c57bl/6 mice; conditions: Mus musculus; for inhibition in vivo at 1 mg/kg: sc, 0.5 h, 1 mg/kg s.c., tested 30 min after dosing, read-out: Screen @ 1 mg/kg sc (% MPE)
How it was run: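 Neuropathy was induced in mice by paclitaxel (6 mg/kg i.p., days 1, 3, 5, 7) or oxaliplatin (4 mg/kg i.p., days 1-5), with re-testing about 14 days later. Compounds were given s.c. (tested at 30 min) or p.o. (tested at 60 min; paclitaxel only). A 0.4 g von Frey filament was applied ten times per paw, and % non-response was converted to % MPE.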

[4] = molecular target: human sphingosine-1-phosphate receptor 3 (S1P3) (Homo sapiens (Human), UniProt Q99500); test: Inhibition of cAMP production (HTRF), S1P3 CHO-K1 cells; assay type: cell-based; conditions: for Emax: CHO-K1, read-out: hS1P3 cAMP SPAN; for hS1P3 cAMP pEC50: inhibition of cAMP production
Experimental: as §1, §2, §3, §4

[5] = molecular target: T1, human sphingosine-1-phosphate receptor 1 (S1P1); test: Inhibition of cAMP production (HTRF cAMP HiRange), S1P1 CHO-K1 cells; assay type: cell-based; conditions: for Emax: CHO-K1, read-out: hS1P1 cAMP SPAN
How it was run: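 CHO-K1 cells stably co-expressing human S1P1 (C-terminal Prolink tag) and EA-β-arrestin2 were grown in AssayComplete Media 6 at 37° C. and 5% CO2, plated, and incubated overnight. Agonist-driven inhibition of intracellular cAMP was read by TR-FRET with the HTRF cAMP HiRange kit on a PheraStar reader. Potency is pEC50, and efficacy (SPAN) is normalized to fingolimod.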
Target sequence in this assay (P21453 whole entry, looked up, the tested form may be a part): as the sequence (P21453 whole entry, looked up, the tested form may be a part) above

[6] = molecular target: human sphingosine-1-phosphate receptor 2 (S1P2) (Homo sapiens (Human), UniProt O95136); test: Inositol monophosphate production (IP-one TB kit), S1P2 CHO-K1 cells; assay type: cell-based; conditions: for Emax: CHO-K1, read-out: hS1P2 IP-one SPAN; for hS1P2 IP-one pEC50: inositol monophosphate accumulation
Experimental: as §1, §2
S1P2 Agonist-promoted G-protein responses were determined by measuring changes in intracellular inositol monophosphate using the IP-one TB kit (CisBio, Cat #: 62IPAPEJ) based on time-resolved fluorescence resonance energy transfer (TR-FRET) technology. AssayComplete™ Cell Plating 2 Reagent was removed and replaced with 1× IP-one stimulation buffer (as per manufacturer's instructions) along with test or control compounds at the desired concentrations. Following a 60-minute incubation at 37° C. and 5% CO2 in a humidified CO2 and temperature-controlled incubator, the components of the IP-one TB kit were added as per the manufacturer's instructions. After an hour incubation at room temperature, plates were analyzed by a BMG PheraStar microplate reader.
as §4

[7] = efficacy normalized to fingolimod
[8] = efficacy (SPAN) normalized to fingolimod
[9] = β-arrestin2 recruitment, S1P1 CHO-K1 cells
[10] = inhibition of cAMP production, S1P1 CHO-K1 cells

Sequence of human sphingosine-1-phosphate receptor 3 (S1P3) (Q99500 whole entry): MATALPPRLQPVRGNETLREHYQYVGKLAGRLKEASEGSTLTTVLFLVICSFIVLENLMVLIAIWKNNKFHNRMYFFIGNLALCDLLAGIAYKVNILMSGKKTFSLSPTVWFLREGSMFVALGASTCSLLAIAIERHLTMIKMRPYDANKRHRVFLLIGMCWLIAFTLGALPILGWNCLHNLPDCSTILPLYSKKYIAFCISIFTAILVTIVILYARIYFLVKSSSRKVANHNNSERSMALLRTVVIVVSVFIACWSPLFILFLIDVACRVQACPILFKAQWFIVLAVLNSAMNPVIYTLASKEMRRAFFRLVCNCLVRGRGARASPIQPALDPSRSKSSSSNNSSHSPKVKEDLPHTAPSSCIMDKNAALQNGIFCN
Sequence of sphingosine-1-phosphate receptor 5 (S1P5) (Q9H228 whole entry): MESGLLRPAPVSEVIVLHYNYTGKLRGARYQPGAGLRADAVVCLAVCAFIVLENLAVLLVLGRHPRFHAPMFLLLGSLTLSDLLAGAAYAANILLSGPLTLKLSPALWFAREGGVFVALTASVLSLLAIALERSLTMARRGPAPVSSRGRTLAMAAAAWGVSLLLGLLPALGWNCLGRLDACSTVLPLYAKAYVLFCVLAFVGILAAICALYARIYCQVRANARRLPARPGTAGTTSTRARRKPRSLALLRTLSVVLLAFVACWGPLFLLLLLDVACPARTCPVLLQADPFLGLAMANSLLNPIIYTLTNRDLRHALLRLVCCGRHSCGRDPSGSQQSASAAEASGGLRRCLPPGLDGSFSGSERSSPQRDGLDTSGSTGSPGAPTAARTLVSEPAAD
Sequence of human sphingosine-1-phosphate receptor 2 (S1P2) (O95136 whole entry): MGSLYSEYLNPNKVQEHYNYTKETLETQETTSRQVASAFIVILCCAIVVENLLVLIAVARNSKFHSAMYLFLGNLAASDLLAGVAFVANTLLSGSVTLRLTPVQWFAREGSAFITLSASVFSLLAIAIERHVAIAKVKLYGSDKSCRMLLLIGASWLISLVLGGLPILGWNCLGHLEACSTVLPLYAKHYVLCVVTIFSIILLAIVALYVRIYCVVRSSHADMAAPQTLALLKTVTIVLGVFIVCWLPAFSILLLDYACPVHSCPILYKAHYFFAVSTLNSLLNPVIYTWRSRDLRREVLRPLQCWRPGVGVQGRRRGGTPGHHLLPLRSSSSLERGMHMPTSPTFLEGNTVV

Structure (SMILES) | Emax [1, 7] [%] | hS1P5 cAMP pEC50 [1] | Emax [2, 8] [%] | hS1P1 B-arrestin2 pEC50 [2, 9] | inhibition in vivo at 1 mg/kg [3] [%] | Emax [4, 7] [%] | hS1P3 cAMP pEC50 [4] | Emax [5, 8] [%] | hS1P1 cAMP pEC50 [5, 10] | Emax ([6]; efficacy normalized to CYM5520) [%] | hS1P2 IP-one pEC50 [6] | hS1P5 cAMP SPAN [1, 7] | hS1P1 B-arrestin2 SPAN [2, 8] | hS1P3 cAMP SPAN [4, 7] | hS1P1 cAMP SPAN [5, 8] | hS1P2 IP-one SPAN ([6]; efficacy normalized to CYM5520) | EC50 ([2]; β-arrestin2 recruitment, S1P1 CHO-K1 cells, read-out: hS1P1 B-arrestin2 pEC50 (converted)) [µM] | EC50 ([5]; inhibition of cAMP production, S1P1 CHO-K1 cells, read-out: hS1P1 cAMP pEC50 (converted)) [µM] | inhibition in vivo at 3 mg/kg ([3]; po, 1 h, 3 mg/kg p.o., tested 60 min after dosing, read-out: Screen @ 3 mg/kg po (% MPE)) [%]
C=CCNc1ccc(-c2nc(-c3ccc(NS(C)(=O)=O)cc3)no2)cc1C#N [Compound 149, N-(4-(5-(4-(allylamino)-3-cyanophenyl)-1,2,4-oxadiazol-3-yl)phenyl)methanesulfonamide] | > 50 | >5.0 | > 75 | >5 | < 50 | > 50 | >5.0 | > 75 | >6.5 | < 50 | <5.0 | – | – | – | – | – | – | – | –
CCC1(CC)CC(=O)c2cc(-c3nc(-c4ccc5[nH]ncc5c4)no3)ccc2O1 [Compound 152, 6-(3-(1H-indazol-5-yl)-1,2,4-oxadiazol-5-yl)-2,2-diethylchroman-4-one] | – | <5.0 | – | >5 | – | – | <5.0 | – | <6.5 | – | <5.0 | <50 | >75 | <50 | >75 | <50 | – | – | –
C=CCNc1ccc(-c2nc(-c3ccc4[nH]cnc4c3)no2)cc1C#N [Compound 177, 5-(3-(1H-benzo[d]imidazol-5-yl)-1,2,4-oxadiazol-5-yl)-2-(allylamino)benzonitrile] | > 50 | >5.0 | > 75 | >5 | > 50 | > 50 | >5.0 | > 75 | >6.5 | < 50 | <5.0 | – | – | – | – | – | – | – | –
CCC1(CC)CC(=O)c2cc(-c3nc(-c4ccc(C(=O)NC)cc4)no3)ccc2O1 [Compound 185, 4-(5-(2,2-diethyl-4-oxochroman-6-yl)-1,2,4-oxadiazol-3-yl)-N-methylbenzamide] | > 50 | <5.0 | > 75 | >5 | > 50 | < 50 | <5.0 | > 75 | >6.5 | < 50 | <5.0 | – | – | – | – | – | – | – | –
CC(C)n1nnc2cc(-c3nc4c(o3)Cc3ccccc3-4)ccc21 [Compound 219, 5-{8H-indeno[1,2-d][1,3]oxazol-2-yl}-1-(propan-2-yl)-1H-1,2,3-benzotriazole] | – | <5.0 | – | >5 | – | – | <5.0 | – | >6.5 | – | >5.0 | – | – | – | – | – | – | – | –
CCC1(CC)CC(=O)c2cc(-c3nc(-c4ccccc4Cl)no3)ccc2O1 [Compound 221, 6-(3-(2-chlorophenyl)-1,2,4-oxadiazol-5-yl)-2,2-diethylchroman-4-one] | – | >5.0 | – | >5 | < 50 | – | >5.0 | – | >6.5 | – | <5.0 | – | – | – | – | – | – | – | –
C=CCNc1ccc(-c2nc(-c3cn[nH]c3)no2)cc1C#N [Compound 252, 5-(3-(1H-pyrazol-4-yl)-1,2,4-oxadiazol-5-yl)-2-(allylamino)benzonitrile] | – | >5.0 | – | – | < 50 | – | >5.0 | – | – | – | >5.0 | – | – | – | – | – | < 10 | < 0.316 | –
CC(C)Nc1ccc(-c2nc(-c3ccc4c(c3)CCC(=O)N4)no2)cc1C#N [Compound 259, 2-(isopropylamino)-5-(3-(2-oxo-1,2,3,4-tetrahydroquinolin-6-yl)-1,2,4-oxadiazol-5-yl)benzonitrile] | < 50 | <5.0 | < 75 | >5 | < 50 | < 50 | <5.0 | > 75 | >6.5 | < 50 | <5.0 | – | – | – | – | – | – | – | –
CCC1(CC)CC(=O)c2cc(-c3nc(-c4ccc(NS(C)(=O)=O)cc4)no3)ccc2O1 [Compound 262, N-(4-(5-(2,2-diethyl-4-oxochroman-6-yl)-1,2,4-oxadiazol-3-yl)phenyl)methanesulfonamide] | < 50 | <5.0 | > 75 | >5 | > 50 | < 50 | <5.0 | > 75 | >6.5 | > 50 | <5.0 | – | – | – | – | – | – | – | > 50
COc1cnccc1-c1nc(-c2ccc3c(ccn3C(C)C)c2)no1 [Compound 391, 3-(1-isopropyl-1H-indol-5-yl)-5-(3-methoxypyridin-4-yl)-1,2,4-oxadiazole] | – | >5.0 | – | >5 | – | – | >5.0 | – | >6.5 | – | >5.0 | – | – | – | – | – | – | – | –
COc1ccccc1-c1nc(-c2ccc3c(ccn3C(C)C)c2)no1 [Compound 398, 3-(1-isopropyl-1H-indol-5-yl)-5-(2-methoxyphenyl)-1,2,4-oxadiazole] | – | <5.0 | – | >5 | – | – | <5.0 | – | >6.5 | – | <5.0 | – | – | – | – | – | – | – | –
COc1ccccc1-c1nnc(-c2ccc3c(c2)oc(=O)n3C)o1 [Compound 406, 6-[5-(2-methoxyphenyl)-1,3,4-oxadiazol-2-yl]-3-methyl-2,3-dihydro-1,3-benzoxazol-2-one] | – | <5.0 | – | >5 | – | – | <5.0 | – | >6.5 | – | <5.0 | – | – | – | – | – | – | – | –
Cc1ccncc1-c1noc(-c2ccc3c(c2)nnn3C2CCC2)n1 [Compound 417, 1-cyclobutyl-5-[3-(4-methylpyridin-3-yl)-1,2,4-oxadiazol-5-yl]-1H-1,2,3-benzotriazole] | – | <5.0 | – | >5 | – | – | <5.0 | – | >6.5 | – | >5.0 | – | – | – | – | – | – | – | –
